Results reported in patent US20240181022A1, “AMURINS LYSINS, AND LYSIN-ANTIMICROBIAL PEPTIDE (AMP) CONSTRUCTS ACTIVE AGAINST GRAM-NEGATIVE BACTERIA” (priority 2021, published 2024).
In brackets after ≈: the same amount, converted by molar mass. Where two headings read alike, the source gives them in different places.

Assays:
[1] = test system: P. aeruginosa; test: Time-kill assay in cystic fibrosis patient sputum, P. aeruginosa; format: cell-based, Pseudomonas aeruginosa
Description: Sputum from 5 cystic fibrosis patients was pooled. The resulting mixture was not filtered, as it was very dense and not amenable to sterilization by filtration. Sputum is known to be a complex mixture of DNA, carbohydrates, and lipids ([…], 2016). As used herein, the term “sputum” refers to the mucus present in the respiratory tract of an animal, such as a human. Sputum may increase in thickness due to the irritation or infection, including bacterial infection, and in some instances, may be expelled by the animal while coughing. In certain instances, cystic fibrosis may be characterized by the presence of a thick, sticky mucus or sputum present in the lungs of cystic fibrosis patients. The activity of GN370, AM1, AM2, AM3, and meropenem was determined in the sputum using a time-kill assay format as disclosed in Zhang et al., Antimicrobial peptide therapeutics for cystic fibrosis, Antimicrobial Agents Chemother. 2005; 49(7):2921-2927. […] Untreated controls were included in addition to pretreatment plating (t=0) for a baseline CFU determination. Activity was also determined in the absence of sputum for comparison to activity observed in the presence of sputum.

[2] = test system: P. aeruginosa

C[C@@H](O)[C@H]1C(=O)N2C(C(=O)O)=C(S[C@@H]3CN[C@H](C(=O)N(C)C)C3)[C@H](C)[C@H]12 [meropenem, reference compound]
activity in the presence and absence of sputum [1]: poorly active | Log10 CFU/mL of sputum ([1]; absence of sputum, 1 hr): 5.38 Log10 CFU/mL of sputum | Log10 CFU/mL of sputum ([1]; absence of sputum, 3 hr): 4.98 Log10 CFU/mL of sputum | Log10 CFU/mL of sputum ([1]; absence of sputum, 24 hr): 6.38 Log10 CFU/mL of sputum | Log10 CFU/mL of sputum ([1]; presence of 10% sputum, 1 hr): 5.26 Log10 CFU/mL of sputum | Log10 CFU/mL of sputum ([1]; presence of 10% sputum, 3 hr): 4.78 Log10 CFU/mL of sputum | Log10 CFU/mL of sputum ([1]; presence of 10% sputum, 24 hr): 6.6 Log10 CFU/mL of sputum | MIC50 ([2]; P. aeruginosa isolates): 4 µg/mL (≈ 10.4 µM) | MIC90 ([2]; P. aeruginosa isolates): 32 µg/mL (≈ 83.4 µM) | MIC ([2]; P. aeruginosa test organism of the sputum time-kill assay): (MIC = 0.125) | MIC ([2]; […], before serial passage): 0.5 µg/mL (≈ 1.3 µM)
